Measurements from patent US20250352448A1, “COMPOSITION FOR IMPROVING SKIN CONDITIONS” (AJINOMOTO CO., INC., priority 2022, published 2025).

Test system: caspase-14
Assay: caspase-14 production in amino acid-depleted epidermal keratinocytes (ELISA)
Format: cell-based
Conditions: human skin-simulating medium 2, cultured 4 days
Source text: Culture media ([…] medium) used for cell culture contain amino acids necessary for cells to survive and grow. […] human skin-simulating medium 2: The essential amino acids in D-MEM (Life Technologies 21068-028) were changed to the concentrations shown in Table 10, human skin-simulating medium 2. […] The next day, the medium was replaced with the medium of evaluation condition (5)-(7). • Evaluation condition (5): Human skin-simulating medium 2 (hereinafter the sample evaluated under evaluation condition (5) is referred to as “Control 3”). • Evaluation condition (6): Medium obtained by adding His (final concentration 0.2 mM), Leu (final concentration 0.8 mM), Val (final concentration 0.8 mM) to human skin-simulating medium 2 (hereinafter the sample evaluated under evaluation condition (6) is referred to as “Example 3”). • Evaluation condition (7): Medium obtained by adding His (final concentration 0.2 mM) to human skin-simulating medium 2 (hereinafter the sample evaluated under evaluation condition (7) is referred to as “Example 4”). […] The protein extract of the above-mentioned 4 was diluted with water, and the protein was quantified using Micro BCA Protein Assay Kit (Thermo Fisher Scientific 23235). • 6. The amount of caspase-14 determined in the above-mentioned 4 was normalized by the amount of protein determined in the above-mentioned 5. • 7. […]

SMILES: N[C@@H](Cc1c[nH]cn1)C(=O)O [His, histidine]
- amount of caspase-14 (normalized by protein amount, Control 3 as 100%) (Experimental Example 2-3, FIG. 3, final His 0.2, Leu 0.8, Val 0.8 mM or His 0.2 mM alone): remarkably increased
- amount of caspase-14 (normalized by protein amount, Control 7 as 100%) (Experimental Example 3-3-1, FIG. 6A, final His 0.2, Leu 0.8, Val 0.8 mM, Val 0.8 mM alone or His 0.2 mM alone): remarkably increased
